Common to all, as to assay type: cell-based
For one experiment, the system named is Parental (Ba/F3). Description: Ba/F3 cell proliferation inhibition. The following applies: BaF3; 72 hours, Cell Counting Kit-8. An outline of the steps:
(§1)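 GI50 derived from CCK-8 absorbance at 450 nm (2 h development), expressed relative to DMSO vehicle. Cells (parental or T315I-Bcr-Abl Ba/F3, 1×10^4/well) received nine threefold-diluted concentrations, final 0 to 10 μM, for 72 h at 37 °C.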
A general note: Tetrazolium dyes change colour on reduction, which living cells bring about.

For the next experiment, the system named is T315I-Bcr-Abl (Ba/F3). Kind of experiment: Ba/F3 cell proliferation inhibition. The settings on record: BaF3; 72 hours, Cell Counting Kit-8. An outline of the steps: as §1
For the next experiment, the system named is KOPM28 cells. Description: human CML cell proliferation inhibition. The settings on record: 72 hours, Cell Counting Kit-8. The method, boiled down:
(§2)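 Cell Counting Kit-8 read-out (450 nm, 2 h) after 72 h compound exposure at 37 °C gave GI50 relative to DMSO vehicle. Human CML lines: wild-type Bcr-Abl TCCS and KOPM28, plus T315I-TCCS and T315I-KOPM28; nine 5-fold dilutions, final 0-10 μM.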

Another experiment has as its system T315I-KOPM28 cells. Kind of experiment: human CML cell proliferation inhibition. The following applies: 72 hours, Cell Counting Kit-8. An outline of the steps: as §2
The test system of a further experiment is T315I-TCCS cells. Kind of experiment: human CML cell proliferation inhibition. The following applies: 72 hours, Cell Counting Kit-8. An outline of the steps:
as §2

A further experiment has as its system TCCS cells. Kind of experiment: human CML cell proliferation inhibition. The following applies: 72 hours, Cell Counting Kit-8. An outline of the steps: as §2

As to `Cc1cn(-c2cc(NC(=O)c3ccc(C)c(C#Cc4cnc5c(Nc6cnn(C)c6)cccn45)c3F)cc(C(F)(F)F)c2)cn1` [Example 6, 2-fluoro-4-methyl-N-(3-(4-methyl-1H-imidazol-1-yl)-5-(trifluoromethyl)phenyl)-3-((8-((1-methyl-1H-pyrazol-4-yl)amino)imidazo[1,2-a]pyridin-3-yl)ethynyl)benzamide], the GI50 with Parental (Ba/F3) is greater than 5000 nM; in the experiment on T315I-Bcr-Abl (Ba/F3), 50 to 500 nM; in the experiment on KOPM28 cells, 100 nM; in the experiment with T315I-KOPM28 cells, greater than 100 nM; with T315I-TCCS cells, 100 nM; in the experiment with TCCS cells, less than 10 nM.

For the compound `Cc1cn(-c2cc(NC(=O)c3ccc(C)c(C#Cc4cnc5c(Nc6cnn(C)c6)cccn45)c3F)cc(C(C)(C)C#N)c2)cn1` [Example 3, N-(3-(2-cyanopropan-2-yl)-5-(4-methyl-1H-imidazol-1-yl)phenyl)-2-fluoro-4-methyl-3-((8-((1-methyl-1H-pyrazol-4-yl)amino)imidazo[1,2-a]pyridin-3-yl)ethynyl)benzamide], the GI50 in the experiment with Parental (Ba/F3) was greater than 5000 nM; in the experiment with T315I-Bcr-Abl (Ba/F3), less than 50 nM; in the experiment with KOPM28 cells it was less than 10 nM; in the experiment on T315I-KOPM28 cells, 100 nM; with T315I-TCCS cells, 100 nM; in the experiment on TCCS cells, less than 10 nM.

Take `Cc1cc(F)c(C(=O)Nc2cc(CN3CCN(C)CC3)cc(C(C)(C)C#N)c2)cc1C#Cc1cnc2c(Nc3cnn(C)c3)cccn12` [Example 27, N-(3-(2-cyanopropan-2-yl)-5-((4-methylpiperazin-1-yl)methyl)phenyl)-2-fluoro-4-methyl-5-((8-((1-methyl-1H-pyrazol-4-yl)amino)imidazo[1,2-a]pyridin-3-yl)ethynyl)benzamide]: the GI50 is 500 to 5000 nM in the experiment on Parental (Ba/F3); less than 50 nM in the experiment on T315I-Bcr-Abl (Ba/F3); less than 10 nM in the experiment on KOPM28 cells; 100 nM in the experiment on T315I-KOPM28 cells; 100 nM with T315I-TCCS cells; less than 10 nM in the experiment on TCCS cells.

For `Cc1cn(-c2cc(NC(=O)c3cc(F)c(C)c(C#Cc4cnc5c(Nc6cnn(C)c6)cccn45)c3)cc(C(C)(C)C#N)c2)cn1` [Example 2, N-(3-(2-cyanopropan-2-yl)-5-(4-methyl-1H-imidazol-1-yl)phenyl)-3-fluoro-4-methyl-5-((8-((1-methyl-1H-pyrazol-4-yl)amino)imidazo[1,2-a]pyridin-3-yl)ethynyl)benzamide], the GI50 in the experiment with Parental (Ba/F3) is greater than 5000 nM; with T315I-Bcr-Abl (Ba/F3) it was less than 50 nM; in the experiment on KOPM28 cells, less than 10 nM; in the experiment with T315I-KOPM28 cells, 100 nM; with T315I-TCCS cells it was less than 10 nM; in the experiment on TCCS cells, less than 10 nM.

In the case of `Cc1cc(F)c(C(=O)Nc2cc(Cn3ccnc3)cc(C(F)(F)F)c2)cc1C#Cc1cnc2c(Nc3cnn(C)c3)cccn12` [Example 73, N-(3-((1H-imidazol-1-yl)methyl)-5-(trifluoromethyl)phenyl)-2-fluoro-4-methyl-5-((8-((1-methyl-1H-pyrazol-4-yl)amino)imidazo[1,2-a]pyridin-3-yl)ethynyl)benzamide], the 50% growth inhibitory concentration (GI50) in the experiment with Parental (Ba/F3) was greater than 5000 nM; in the experiment on T315I-Bcr-Abl (Ba/F3), 50 to 500 nM; with KOPM28 cells, less than 10 nM; in the experiment with T315I-KOPM28 cells, 100 nM; in the experiment with T315I-TCCS cells, 100 nM; in the experiment with TCCS cells, less than 10 nM.

As to `Cc1cc(F)c(C(=O)Nc2cc(N3CCN(C)CC3)cc(C(C)(C)C#N)c2)cc1C#Cc1cnc2c(Nc3cn[nH]c3)cccn12` [Example 80, 5-((8-((1H-pyrazol-4-yl)amino)imidazo[1,2-a]pyridin-3-yl)ethynyl)-N-(3-(2-cyanopropan-2-yl)-5-(4-methylpiperazin-1-yl)phenyl)-2-fluoro-4-methylbenzamide], the 50% growth inhibitory concentration (GI50) in the experiment with Parental (Ba/F3) is greater than 5000 nM; in the experiment with T315I-Bcr-Abl (Ba/F3), 50 to 500 nM; in the experiment with KOPM28 cells, less than 10 nM; with T315I-KOPM28 cells it was greater than 100 nM; in the experiment on T315I-TCCS cells, 100 nM; in the experiment on TCCS cells it was less than 10 nM.

Take `Cc1cc(F)c(C(=O)Nc2cc(CN3CC(OC(C)C)C3)cc(C(C)(C)C#N)c2)cc1C#Cc1cnc2c(Nc3cnn(C)c3)cccn12` [Example 36, N-(3-(2-cyanopropan-2-yl)-5-((3-isopropoxyazetidin-1-yl)methyl)phenyl)-2-fluoro-4-methyl-5-((8-((1-methyl-1H-pyrazol-4-yl)amino)imidazo[1,2-a]pyridin-3-yl)ethynyl)benzamide]: the GI50 in the experiment with Parental (Ba/F3) was greater than 5000 nM; with T315I-Bcr-Abl (Ba/F3), 50 to 500 nM; in the experiment on KOPM28 cells, less than 10 nM; in the experiment with T315I-KOPM28 cells, 100 nM; in the experiment with T315I-TCCS cells, 100 nM; in the experiment with TCCS cells, less than 10 nM.

Regarding `Cc1cc(F)c(C(=O)Nc2cc(-c3cnn(C)c3)cc(C(C)(C)C#N)c2)cc1C#Cc1cnc2c(Nc3cnn(C)c3)cccn12` [Example 19, N-(3-(2-cyanopropan-2-yl)-5-(1-methyl-1H-pyrazol-4-yl)phenyl)-2-fluoro-4-methyl-5-((8-((1-methyl-1H-pyrazol-4-yl)amino)imidazo[1,2-a]pyridin-3-yl)ethynyl)benzamide], the GI50 in the experiment with Parental (Ba/F3) is greater than 5000 nM; with T315I-Bcr-Abl (Ba/F3), 50 to 500 nM; with KOPM28 cells, less than 10 nM; in the experiment on T315I-KOPM28 cells, greater than 100 nM; with T315I-TCCS cells, 100 nM; in the experiment with TCCS cells it was less than 10 nM.

For `Cc1cc(F)c(C(=O)Nc2cc(CN3CCOCC3)cc(C(C)(C)C#N)c2)cc1C#Cc1cnc2c(Nc3cnn(C)c3)cccn12` [Example 28, N-(3-(2-cyanopropan-2-yl)-5-(morpholinomethyl)phenyl)-2-fluoro-4-methyl-5-((8-((1-methyl-1H-pyrazol-4-yl)amino)imidazo[1,2-a]pyridin-3-yl)ethynyl)benzamide], the concentration for 50% growth inhibition (GI50) in the experiment on Parental (Ba/F3) is greater than 5000 nM; in the experiment with T315I-Bcr-Abl (Ba/F3), 50 to 500 nM; in the experiment with KOPM28 cells it was less than 10 nM; with T315I-KOPM28 cells, greater than 100 nM; with T315I-TCCS cells, greater than 100 nM; in the experiment with TCCS cells, less than 10 nM.

Take `Cc1cc(F)c(C(=O)Nc2ccc(CN3CCOCC3)c(C(F)(F)F)c2)cc1C#Cc1cnc2c(Nc3cnn(C)c3)cccn12` [Example 57, 2-fluoro-4-methyl-5-((8-((1-methyl-1H-pyrazol-4-yl)amino)imidazo[1,2-a]pyridin-3-yl)ethynyl)-N-(4-(morpholinomethyl)-3-(trifluoromethyl)phenyl)benzamide]: the GI50 was greater than 5000 nM in the experiment with Parental (Ba/F3); 50 to 500 nM in the experiment on T315I-Bcr-Abl (Ba/F3); less than 10 nM with KOPM28 cells; greater than 100 nM in the experiment with T315I-KOPM28 cells; 100 nM in the experiment on T315I-TCCS cells; 100 nM in the experiment on TCCS cells.

In general, GI50 refers to the concentration that inhibits growth by half.
